Test results from US20240082414A1, “HUMAN TUMOR NECROSIS FACTOR ALPHA ANTIBODY GLUCOCORTICOID CONJUGATES” (Eli Lilly and Company, priority 2022, published 2024).

Tested on: anti-drug antibodies against adalimumab
Test: ACE-Bridge binding to cynomolgus monkey anti-drug antibodies against adalimumab
Conditions: FIG. 3; AP-HIMS from monkeys hyperimmunized with adalimumab; bridging with the labeled test antibody
Procedure: Example 5a. […] The anti-adalimumab antibodies were detected using a titration of AP-HIMS in an ACE-Bridge assay. The assay was developed following the FDA Guidance on Immunogenicity testing. […] The following day, plates were washed three times with TBST and the captured anti-adalimumab antibodies were acid eluted using 65 μL/well of 300 mM acetic acid (Fisher Scientific, A38-500) for 5 min at room temperature. […] Next, 50 μL of the acid eluted samples were added to the polypropylene plate containing the mixture in neutralizing buffer and the ADA and were allowed to bridge to the labeled antibodies for 1 h at room temperature. MSD Gold 96-well streptavidin plates (Mesoscale, L15SA-1) were washed and blocked with TBS+1% BSA for 1 h at room temperature, then washed, and 80 μL of bridged samples were added to the plate for 1 h. The plates were washed three times with TBST, and 150 μL/well of 2×MSD Buffer (Mesoscale, R92TC-2) was added to the plates. Plates were read on an MSD SQ120 reader to provide the Tier 1 signal expressed as electro chemiluminescent units (ECLU).
The resulting ECLU signal was then plotted as a function of the concentration of AP-HIMS tested.

Substance: adalimumab: other anti-TNFα therapeutic antibody [reference compound]
- maximum ECLU signal: 40000 ECLU
